The source of these data is patent US11970494B2, “6-heteroaryloxy benzimidazoles and azabenzimidazoles as JAK2 inhibitors” (Ajax Therapeutics, Inc., priority 2021, dated 2024).

Data set [1] addresses T1, JAK2 (JH1 domain-catalytic, Y1007F,Y1008F) kinase (Homo sapiens, UniProt O60674, Y1007F/Y1008F).
T1 construct: made in house; host or cells: transiently transfected HEK293 cells
The data set can be described thus: JAK2 Binding Assay (JAK2 JH1 Domain Binding Assay). To be noted: JAK2 JH1 domain binding, qPCR detection; read-out: JAK2 Kd.

The next data set is described as follows: Caco2 Permeability Assay. To be noted: human; for efflux ratio at 2 h, 5 μM: pH 7.4, Caco-2, 5 μM, read-out: Efflux Ratio (ER); for Papp A→B at 2 h, 5 μM: pH 7.4, Caco-2, apical to basolateral. It counts as in vitro ADME. Here is the method: Preparation of Caco-2 Cells: 50 μL and 25 mL of cell culture medium are added to each well of a Transwell® insert and reservoir, respectively. Then, the HTS Transwell® plates are incubated at 37° C., 5% CO2 for 1 hour before cell seeding. Caco-2 cell cells are diluted to 6.86×10^5 cells/mL with culture medium, and 50 μL of cell suspension are dispensed into the filter well of the 96-well HTS Transwell® plate. Cells are cultivated for 14-18 days in a cell culture incubator at 37° C., 5% CO2, 95% relative humidity. Cell culture medium is replaced every other day, beginning no later than 24 hours after initial plating.
Preparation of Stock Solutions: 10 mM stock solutions of test compounds are prepared in DMSO. The stock solutions of positive controls are prepared in DMSO at the concentration of 10 mM. Digoxin and propranolol are used as control compounds in this assay.
Assessment of Cell Monolayer Integrity: Medium is removed from the reservoir and each Transwell® insert and is replaced with prewarmed fresh culture medium. Transepithelial electrical resistance (TEER) across the monolayer is measured using Millicell Epithelial Volt-Ohm measuring system (Millipore, USA). The Plate is returned to the incubator once the measurement is done. The TEER value is calculated according to the following equation: TEER measurement (ohms)×Area of membrane (cm^2)=TEER value (ohm⋅cm^2). A TEER value greater than 230 ohm⋅cm^2 indicates a well-qualified Caco-2 monolayer.
Assay Procedure: The Caco-2 plate is removed from the incubator and washed twice with pre-warmed HBSS (10 mM HEPES, pH 7.4), and then incubated at 37° C. for 30 minutes. The stock solutions of control compounds are diluted in DMSO to get 1 mM solutions and then diluted with HBSS (10 mM HEPES, pH 7.4) to get 5 μM working solutions. The stock solutions of the test compounds are diluted in DMSO to get 1 mM solutions and then diluted with HBSS (10 mM HEPES and 4% BSA, pH 7.4) to get 5 μM working solutions. The final concentration of DMSO in the incubation system is 0.5%. To determine the rate of drug transport in the apical to basolateral direction. 75 μL of 5 μM working solutions of test compounds are added to the Transwell® insert (apical compartment) and the wells in the receiver plate (basolateral compartment) are filled with 235 μL of HBSS (10 mM HEPES and 4% BSA, pH 7.4). To determine the rate of drug transport in the basolateral to apical direction, 235 μL of 5 μM working solutions of test compounds are added to the receiver plate wells (basolateral compartment) and then the Transwell® inserts (apical compartment) are filled with 75 μL of HBSS (10 mM HEPES and 4% BSA, pH 7.4). Time 0 samples are prepared by transferring 50 μL of 5 μM working solution to wells of the 96-deepwell plate, followed by the addition of 200 μL cold methanol containing appropriate internal standards (IS). The plates are incubated at 37° C. for 2 hours. At the end of the incubation, 50 μL samples from donor sides (apical compartment for Ap→*Bl flux, and basolateral compartment for Bl→Ap) and receiver sides (basolateral compartment for Ap→Bl flux, and apical compartment for Bl→Ap) are transferred to wells of a new 96-well plate, followed by the addition of 4 volume of cold acetonitrile or methanol containing appropriate internal standards (IS). Samples are vortexed for 5 minutes and then centrifuged at 3,220 g for 40 minutes. An aliquot of 100 μL of the supernatant is mixed with an appropriate volume of ultra-pure water before LC-MS/MS analysis. To determine the Lucifer Yellow leakage after 2 hour transport period, stock solution of Lucifer yellow is prepared in ultra-pure water and diluted with HBSS (10 mM HEPES, pH 7.4) to reach the final concentration of 100 μM. 100 μL of the Lucifer yellow solution is added to each Transwell® insert (apical compartment), followed by filling the wells in the receiver plate (basolateral compartment) with 300 μL of HBSS (10 mM HEPES, pH 7.4). […]

Data set [2] can be described thus: Hepatocyte Stability Assay, human hepatocytes. To be noted: cryopreserved hepatocytes, read-out: Human Heps CLint. Format: in vitro ADME. How it is done:
(§1) 10 mM stock solutions of test compound and positive control are prepared in DMSO. Stock solutions are diluted to 100 μM by combining 198 μL of 50% acetonitrile/50% water and 2 μL of 10 mM stock solution. Verapamil is used as positive control in the assay. Vials of cryopreserved hepatocytes are thawed in a 37° C. water bath with gently shaking. The contents are poured into the 50 mL thawing medium conical tube. Vials are centrifuged at 100 g for 10 minutes at room temperature. Thawing medium is aspirated and hepatocytes are re-suspended with serum-free incubation medium to yield ˜1.5×10^6 cells/mL. Cell viability and density are counted using a Trypan Blue exclusion, and then cells are diluted with serum-free incubation medium to a working cell density of 0.5×10^6 viable cells/mL. A portion of the hepatocytes at 0.5×10^6 viable cells/mL are boiled for 5 min prior to adding to the plate as negative control to eliminate the enzymatic activity so that little or no substrate turnover should be observed. Aliquots of 198 μL hepatocytes are dispensed into each well of a 96-well non-coated plate. The plate is placed in the incubator for approximately 10 minutes. Aliquots of 2 μL of the 100 μM test compound and 2 μL positive control are added into respective wells of a non-coated 96-well plate to start the reaction. The final concentration of test compound is 1 μM. This assay is performed in duplicate. The plate is incubated in the incubator for the designed time points. 25 μL of contents are transferred and mixed with 6 volumes (150 μL) of cold acetonitrile with internal standard (100 nM alprazolam, 200 nM labetalol, 200 nM caffeine and 200 nM diclofenac) to terminate the reaction at time points of 0, 15, 30, 60, 90 and 120 minutes. Samples are centrifuged for 25 minutes at 3,220 g and aliquots of 150 μL of the supernatants are used for LC-MS/MS analysis.

Data set [3] in a line: Hepatocyte Stability Assay, rat hepatocytes. It counts as in vitro ADME. Particulars: cryopreserved hepatocytes, read-out: Rat Heps CLint. How it is done:
as §1

T1 sequence (O60674 849-1124 Y1007F/Y1008F limits assumed): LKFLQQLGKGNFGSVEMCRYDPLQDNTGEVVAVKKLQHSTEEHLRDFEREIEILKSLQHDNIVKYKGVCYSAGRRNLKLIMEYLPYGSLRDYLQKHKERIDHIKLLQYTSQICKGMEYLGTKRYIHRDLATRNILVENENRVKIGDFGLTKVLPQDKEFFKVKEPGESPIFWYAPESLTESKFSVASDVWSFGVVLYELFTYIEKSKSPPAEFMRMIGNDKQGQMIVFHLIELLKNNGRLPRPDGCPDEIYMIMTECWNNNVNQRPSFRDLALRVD

Turning to `CO[C@@H]1CCN(C(=O)Nc2cc(Oc3cnc4nc(Nc5cc6n(n5)CCC65CCC5)n(C)c4c3C#N)ccn2)C1` [Example I-60, (R)-N-(4-((7-cyano-2-((5′,6′-dihydrospiro[cyclobutane-1,4′-pyrrolo[1,2-b]pyrazol]-2′-yl)amino)-1-methyl-1H-imidazo[4,5-b]pyridin-6-yl)oxy)pyridin-2-yl)-3-methoxypyrrolidine-1-carboxamide], the Kd in data set [1] was less than 10 nM. Also, in “Caco2 Permeability Assay”, the efflux ratio at 2 h, 5 μM was no more than 2 and the Papp A→B at 2 h, 5 μM was found to be 6 ×10⁻⁶ cm/s. Moreover, the CLint scaled at 1 μM in data set [2] was 6 to 12 mL/min/kg. Moreover, in data set [3], the CLint scaled at 1 μM lay in the range of 17 to 35 mL/min/kg.

Consider `COC(=O)Nc1cc(Oc2cnc3nc(Nc4cc5n(n4)CCC54CCC4)n(C)c3c2C#N)ccn1` [Example I-57, methyl(4-((7-cyano-2-((5′,6′-dihydrospiro[cyclobutane-1,4′-pyrrolo[1,2-b]pyrazol]-2′-yl)amino)-1-methyl-1H-imidazo[4,5-b]pyridin-6-yl)oxy)pyridin-2-yl)carbamate], for which the Kd in data set [1] was less than 10 nM. Also, in the data set “Caco2 Permeability Assay”, the efflux ratio at 2 h, 5 μM was no more than 2 and the Papp A→B at 2 h, 5 μM was 5 ×10⁻⁶ cm/s. In addition, the CLint scaled at 1 μM in data set [2] lay within 6 to 12 mL/min/kg. Further, in data set [3], the CLint scaled at 1 μM fell in the range of 35 to 45 mL/min/kg.

With `Cn1cc(C(F)(F)F)cc(Nc2nc3ncc(Oc4ccnc(NC(=O)OCCN5CCOCC5)c4)c(C#N)c3n2C)c1=O` [Example I-15, 2-Morpholinoethyl(4-((7-cyano-1-methyl-2-((1-methyl-2-oxo-5-(trifluoromethyl)-1,2-dihydropyridin-3-yl)amino)-1H-imidazo[4,5-b]pyridin-6-yl)oxy)pyridin-2-yl)carbamate], the Kd in data set [1] was less than 10 nM. In “Caco2 Permeability Assay”, the efflux ratio at 2 h, 5 μM is 2 to 5 and the Papp A→B at 2 h, 5 μM stood at 4 ×10⁻⁶ cm/s. Besides, the CLint scaled at 1 μM in data set [2] is no more than 6 mL/min/kg. Besides, the CLint scaled at 1 μM in data set [3] is less than 17 mL/min/kg.

Consider `CO[C@H]1CCN(C(=O)Nc2cc(Oc3cnc4nc(Nc5cc(C(F)(F)F)cn(C)c5=O)n(C)c4c3C#N)ccn2)C1` [Example I-14, (S)-N-(4-((7-cyano-1-methyl-2-((1-methyl-2-oxo-5-(trifluoromethyl)-1,2-dihydropyridin-3-yl)amino)-1H-imidazo[4,5-b]pyridin-6-yl)oxy)pyridin-2-yl)-3-methoxypyrrolidine-1-carboxamide], for which the Kd in data set [1] is less than 10 nM. In addition, in the data set “Caco2 Permeability Assay”, the efflux ratio at 2 h, 5 μM lay in the range of 2 to 5 and the Papp A→B at 2 h, 5 μM came out at 4 ×10⁻⁶ cm/s. Besides, in data set [2], the CLint scaled at 1 μM is no more than 6 mL/min/kg. Further, the CLint scaled at 1 μM in data set [3] is less than 17 mL/min/kg.

As to `COCC(=O)Nc1cc(Oc2cnc3nc(Nc4cc(C(F)(F)F)cn(C)c4=O)n(C)c3c2Cl)ccn1` [Example I-75, N-(4-((7-chloro-1-methyl-2-((1-methyl-2-oxo-5-(trifluoromethyl)-1,2-dihydropyridin-3-yl)amino)-1H-imidazo[4,5-b]pyridin-6-yl)oxy)pyridin-2-yl)-2-methoxyacetamide], the dissociation constant (Kd) in data set [1] is less than 10 nM. Besides, in “Caco2 Permeability Assay”, the efflux ratio at 2 h, 5 μM was no more than 2 and the apparent permeability from apical to basolateral (Papp A→B) at 2 h, 5 μM is 12 ×10⁻⁶ cm/s. In addition, the CLint scaled at 1 μM in data set [2] fell in the range of 12 to 20 mL/min/kg. Also, the CLint scaled at 1 μM in data set [3] was less than 17 mL/min/kg.

`COC(=O)Nc1cc(Oc2cnc3nc(Nc4cc(C(F)(F)F)cn(C)c4=O)n(C)c3c2C#N)ccn1` [Example I-3, Methyl (4-((7-cyano-1-methyl-2-((1-methyl-2-oxo-5-(trifluoromethyl)-1,2-dihydropyridin-3-yl)amino)-1H-imidazo[4,5-b]pyridin-6-yl)oxy)pyridin-2-yl)carbamate]: in data set [1], the Kd was less than 10 nM. In addition, in “Caco2 Permeability Assay”, the efflux ratio at 2 h, 5 μM was no more than 2 and the Papp A→B at 2 h, 5 μM stood at 12 ×10⁻⁶ cm/s. For the same molecule, the CLint scaled at 1 μM in data set [2] was no more than 6 mL/min/kg. In data set [3], the CLint scaled at 1 μM was less than 17 mL/min/kg.

On to `COC1CN(C(=O)Nc2cc(Oc3cnc4nc(Nc5cc6n(n5)CCC65CCC5)n(C)c4c3C#N)ccn2)C1` [Example I-61, N-(4-((7-cyano-2-((5′,6′-dihydrospiro[cyclobutane-1,4′-pyrrolo[1,2-b]pyrazol]-2′-yl)amino)-1-methyl-1H-imidazo[4,5-b]pyridin-6-yl)oxy)pyridin-2-yl)-3-methoxyazetidine carboxamide], for which the Kd in data set [1] is less than 10 nM. In “Caco2 Permeability Assay”, the efflux ratio at 2 h, 5 μM lay in the range of 2 to 5. In addition, the apparent permeability from apical to basolateral (Papp A→B) at 2 h, 5 μM in the data set “Caco2 Permeability Assay” was determined as 3 ×10⁻⁶ cm/s. Also, the CLint scaled at 1 μM in data set [2] was no more than 6 mL/min/kg; in data set [3], 35 to 45 mL/min/kg.

Regarding `CN(C)C(=O)Nc1cc(Oc2cnc3nc(Nc4cc(C(F)(F)F)cn(C)c4=O)n(C)c3c2C#N)ccn1` [Example I-4, 3-(4-((7-cyano-1-methyl-2-((1-methyl-2-oxo-5-(trifluoromethyl)-1,2-dihydropyridin-3-yl)amino)-1H-imidazo[4,5-b]pyridin-6-yl)oxy)pyridin-2-yl)-1,1-dimethylurea], in data set [1], the dissociation constant (Kd) is less than 10 nM. Besides, in “Caco2 Permeability Assay”, the efflux ratio at 2 h, 5 μM is 2 to 5 and the apical-to-basolateral permeability (Papp A→B) at 2 h, 5 μM stood at 7 ×10⁻⁶ cm/s. In addition, in data set [2], the CLint scaled at 1 μM is no more than 6 mL/min/kg. In data set [3], the CLint scaled at 1 μM lay in the range of 17 to 35 mL/min/kg.

For the molecule `Cn1c(Nc2cc3n(n2)CCOC3(C)C)nc2ncc(Oc3ccnc(NC(=O)O[C@@H]4CCOC4)c3)c(C#N)c21` [Example I-48, (R)-Tetrahydrofuran-3-yl(4-((7-cyano-2-((4,4-dimethyl-6,7-dihydro-4H-pyrazolo[5,1-c][1,4]oxazin-2-yl)amino)-1-methyl-1H-imidazo[4,5-b]pyridin-6-yl)oxy)pyridin-2-yl)carbamate], the Kd in data set [1] was less than 10 nM. In the data set “Caco2 Permeability Assay”, the efflux ratio at 2 h, 5 μM fell in the range of 5 to 10 and the Papp A→B at 2 h, 5 μM stood at 2 ×10⁻⁶ cm/s. In addition, in data set [2], the CLint scaled at 1 μM fell in the range of 6 to 12 mL/min/kg.
